Results: PMC10298284, “Synthesis and hLDH Inhibitory Activity of Analogues to Natural Products with 2,8-Dioxabicyclo[3.3.1]nonane Scaffold” (International Journal of Molecular Sciences, 2023)
Values joined by “and” are separate entries in the source; they are usually repeats but may differ in a detail not shown here. Equal values may be shown once. Read-outs that look alike come from different tables or passages of the source.

Legend:
recombinant human LDHB [1] = biological target: T1, recombinant human LDHB (Homo sapiens, UniProt P07195); experiment: hLDHB enzymatic activity assay (same fluorimetric protocol); assay type: biochemical; conditions: mean ± SD of n = 3 replicates
T1 construct: purchased Abcam
T1 sequence (P07195 whole entry): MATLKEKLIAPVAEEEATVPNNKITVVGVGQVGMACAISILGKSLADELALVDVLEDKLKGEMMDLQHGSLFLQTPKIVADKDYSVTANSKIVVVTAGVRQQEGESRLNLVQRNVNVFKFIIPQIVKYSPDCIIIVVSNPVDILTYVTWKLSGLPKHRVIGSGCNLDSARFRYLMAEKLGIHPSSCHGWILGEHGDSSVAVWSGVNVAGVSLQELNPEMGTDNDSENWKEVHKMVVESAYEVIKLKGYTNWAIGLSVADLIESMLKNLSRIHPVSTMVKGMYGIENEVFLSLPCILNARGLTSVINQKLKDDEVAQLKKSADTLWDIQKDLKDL
Procedure: (§1) Briefly, the decrease in the coenzyme β-NADH fluorescence (λemission = 460 nm) was measured for 10 min, at different concentration of inhibitors, and its slope was compared with the one obtained when there were not inhibitors added (100% enzymatic activity).
The ability of the synthesized compounds to inhibit the hLDHB enzyme was measured using recombinant human LDHB (95%, specific activity >300 units/mg and concentration of 1.0 mg/mL, Abcam, Cambridge, UK) following the same fluorimetric protocol described in Section 3.4.

recombinant human LDHA [2] = biological target: T2, recombinant human LDHA (Homo sapiens, UniProt P00338); design: method as in PMID 36113265; conditions: compounds evaluated previously, cited from earlier work; for IC50: included for comparative purposes, read-out: hLDHA IC50; for Selectivity Rate (IC50 hLDHB/hLDHA): ratio IC50 hLDHB / IC50 hLDHA
T2 construct: purchased Abcam

recombinant human LDHB [3] = biological target: T1, recombinant human LDHB; design: method as in PMID 36113265; conditions: compounds evaluated previously, included for comparative purposes; read-out: hLDHB IC50; cited from earlier work
recombinant human LDHA [4] = biological target: T2, recombinant human LDHA; experiment: hLDHA enzymatic activity assay (kinetic spectrofluorimetric, β-NADH fluorescence decrease); assay type: biochemical; conditions: for IC50: mean ± SD of n = 3 replicates; for Selectivity Rate (IC50 hLDHB/hLDHA): ratio IC50 hLDHB / IC50 hLDHA
Procedure: as §1
The enzymatic assay was conducted on 96-well microplates and the decrease in the β-NADH fluorescence (λexcitation = 340 nm; λemission = 460 nm) was detected in a TECAN Infinite 200 Pro M Plex fluorescent plate reader (Tecan Instrument, Inc.) at 28 °C. The activity was determined according to our previously described protocol. The final volume in each well was set to 200 µL using 100 mM potassium phosphate buffer, 0.041 units/mL LDHA, 155 µM β-NADH, 1 mM pyruvate (saturated conditions), and DMSO solutions (5%, v/v) of pure compounds at concentrations in the range of 1–600 µM. The addition of pyruvate allowed the beginning of the reaction and fluorescence was registered every 60 s during 10 min. A lineal time interval was selected to calculate the slope at every single concentration. […] The slope obtained at each concentration was compared to the one obtained for the 100% enzymatic activity control to determine the corresponding enzymatic activity. A nonlinear regression analysis in GraphPad Prism version 9.00 for Windows (GraphPad Software, La Jolla, CA, USA) was used for dose response curve, fitting of logarithm of inhibitor concentration vs. normalized enzymatic activity, to calculate IC50 values (Supplementary Material section). All measurements were made in triplicate and data were expressed as the mean ± SD.

[5] = supplementary dose response curves, µM only on the axis label, read-out: IC50 (hLDHB inhibition curve)
[6] = 1 mM pyruvate, 155 µM β-NADH, pH 7.3, 28 °C, read-out: hLDHA IC50
[7] = supplementary dose response curves, µM only on the axis label, read-out: IC50 (hLDHA inhibition curve)

Compound | IC50 (recombinant human LDHB [1]; [5]) | IC50 (recombinant human LDHA [2]) | Selectivity Rate (IC50 hLDHB/hLDHA) (recombinant human LDHA [2]) | IC50 (recombinant human LDHB [3]) | melting point | IC50 (recombinant human LDHA [4]; [6]) | Selectivity Rate (IC50 hLDHB/hLDHA) (recombinant human LDHA [4]) | IC50 (recombinant human LDHA [4]; [7]) | IC50 (recombinant human LDHB [1]; read-out: hLDHB IC50) | Selectivity Rate (IC50 hLDHB/hLDHA) (recombinant human LDHA [4]; listed as 50) | Selectivity Rate (IC50 hLDHB/hLDHA) (recombinant human LDHA [4]; listed as 65a) | Selectivity Rate (IC50 hLDHB/hLDHA) (recombinant human LDHA [4]; listed as 67a)
Oc1cc(O)c2c(c1)OC1(c3ccc(O)c(O)c3)CC2c2ccccc2O1 (racemic) [(±)-1] | 35.4 ± 0.8 µM | 73.1 ± 2.5 µM | 0.5 | – | – | – | – | – | – | – | – | –
O=[N+]([O-])c1ccc2c(c1)C1CC(c3ccc(O)c(O)c3)(O2)Oc2cc(O)cc(O)c21 (racemic) [(±)-2] | – | 9.7 ± 1.1 µM | 3.0 | 28.6 ± 1.9 µM | – | – | – | – | – | – | – | –
Oc1cc(O)c2c(c1)OC1(c3ccc(O)c(O)c3)CC2c2cc(Cl)ccc2O1 (racemic) [(±)-3] | – | 15.7 ± 2.7 µM | 2.5 | 39.7 ± 2.8 µM | – | – | – | – | – | – | – | –
Oc1ccc(C23CC(c4ccccc4O2)c2c(O)cc(O)cc2O3)cc1 (racemic) [(±)-4] | 45.9 ± 1.5 µM | 60 ± 4.7 µM | 0.8 | – | – | – | – | – | – | – | – | –
O=[N+]([O-])c1ccc2c(c1)C1CC(c3ccc(O)cc3)(O2)Oc2cc(O)cc(O)c21 (racemic) [(±)-5] | – | 24.4 ± 2.7 µM | 2.9 | 69.7 ± 4.7 µM | – | – | – | – | – | – | – | –
Oc1ccc(C23CC(c4cc(Cl)ccc4O2)c2c(O)cc(O)cc2O3)cc1 (racemic) [(±)-6] | – | 26.7 ± 0.8 µM | 3.2 | 85.5 ± 2.5 µM | – | – | – | – | – | – | – | –
COc1ccc(C23CC(c4ccccc4O2)c2c(O)cc(O)cc2O3)cc1OC (racemic) [(±)-42, 2-(3′,4′-Dimethoxyphenyl)-chromane-(4→4″, 2→O-5″)-phloroglucinol] | – | – | – | – | 77 to 80 °C (dec.) | 154 ± 11.3 µM | 1.9 | 154 ± 11.3 µM | 293.1 ± 2.4 µM | – | – | –
COc1ccc(C23CC(c4cc([N+](=O)[O-])ccc4O2)c2c(O)cc(O)cc2O3)cc1OC (racemic) [(±)-43, 2-(3′,4′-Dimethoxyphenyl)-6-nitrochromane-(4→4″, 2→O-5″)-phloroglucinol] | – | – | – | – | 193 to 195 °C | < 10 µM and 8.2 µM | 8.0 | 8.2 ± 0.2 µM | 65.3 ± 2.1 µM | – | – | –
O=c1oc2ccccc2c2c1C1CC(c3ccc(O)c(O)c3)(Oc3ccc(Cl)cc31)O2 (racemic) [(±)-47, 2-(3′,4′-Dihydroxyphenyl)-6-chlorochromane-(4→3″, 2→O-4″)-4″-hydroxycoumarin] | – | – | – | – | 98 to 100 °C (dec.) | < 10 µM and 9.1 µM | 1.6 | 9.1 ± 0.5 µM | 14.3 ± 0.9 µM | – | – | –
COc1ccc(C23CC(c4cc([N+](=O)[O-])ccc4O2)c2c(c4ccccc4oc2=O)O3)cc1OC (racemic) [(±)-49, 2-(3′,4′-Dimethoxyphenyl)-6-nitrochromane-(4→3″, 2→O-4″)-4″-hydroxycoumarin] | – | – | – | – | 142 to 144 °C | 25.7 ± 0.3 µM | 8.3 | 25.7 ± 0.3 µM | 212.3 ± 1.4 µM | – | – | –
COc1ccc(C23CC(c4cc(Cl)ccc4O2)c2c(c4ccccc4oc2=O)O3)cc1OC (racemic) [(±)-50, 2-(3′,4′-Dimethoxyphenyl)-6-chlorochromane-(4→3″, 2→O-4″)-4″-hydroxycoumarin] | – | – | – | – | 130 to 133 °C | 13.2 ± 0.8 µM | >22.7 | 13.2 ± 0.8 µM | > 300 µM | > 10 | – | –
O=C1C2=C(C(=O)c3ccccc31)C1CC(c3ccc(O)c(O)c3)(O2)Oc2ccc([N+](=O)[O-])cc21 (racemic) [(±)-55, 2-(3′.4′-Dihydroxyphenyl)-6-nitrochromane-(4→3″, 2→O-2″)-2″-hydroxy-1″,4″-naphthoquinone] | – | – | – | – | 247 to 250 °C | 27.4 ± 0.6 µM | 1.1 | 27.4 ± 0.6 µM | – | – | – | –
O=C1C2=C(C(=O)c3ccccc31)C1CC(c3ccc(O)c(O)c3)(O2)Oc2ccc(Cl)cc21 (racemic) [(±)-56, 2-(3′,4′-Dihydroxyphenyl)-6-chlorochromane-(4→3″, 2→O-2″)-2″-hydroxy-1″,4″-naphthoquinone] | – | – | – | – | 300 to 302 °C (dec.) | 13.7 ± 0.6 µM | 8.7 | 13.7 ± 0.6 µM | 119 ± 2.7 µM | – | – | –
COc1ccc(C2CC3=C(C(=O)O2)C2CC(c4ccc(OC)c(OC)c4)(O3)Oc3ccccc32)cc1 (racemic) [(±)-64a, 2-(3′,4′-Dimethoxyphenyl)-chromane-(4→3″, 2→O-4″)-4″-hydroxy-6″-(4‴-methoxyphenyl)-5″,6″-dihydro-2H-pyran-2″-one] | – | – | – | – | 172 to 175 °C | 52.8 ± 5.3 µM | >5.7 | 52.8 ± 5.3 µM | > 300 µM | – | – | –
COc1ccc(C23CC(C4=C(CC(c5ccccc5)OC4=O)O2)c2cc([N+](=O)[O-])ccc2O3)cc1OC (racemic) [(±)-65a, 2-(3′,4′-Dimethoxyphenyl)-6-nitrochromane-(4→3″, 2→O-4″)-4″-hydroxy-6″-phenyl-5″,6″-dihydro-2H-pyran-2″-one] | – | – | – | – | 198 to 200 °C | 12.5 ± 1.1 µM | 21.5 | 12.5 ± 1.1 µM | 269 ± 11 µM | – | > 10 | –
COc1ccc(C23CC(C4=C(CC(c5ccc(Cl)cc5)OC4=O)O2)c2cc([N+](=O)[O-])ccc2O3)cc1OC (racemic) [(±)-66a, 2-(3′,4′-Dimethoxyphenyl)-6-nitrochromane-(4→3″, 2→O-4″)-6″-(4‴-chlorophenyl)-4″-hydroxy-5″,6″-dihydro-2H-pyran-2″-one] | – | – | – | – | 194 to 196 °C | < 10 µM and 5.8 µM | 4.8 | 5.8 µM | 28.1 ± 0.4 µM | – | – | –
COc1ccc(C2CC3=C(C(=O)O2)C2CC(c4ccc(OC)c(OC)c4)(O3)Oc3ccc([N+](=O)[O-])cc32)cc1 (racemic) [(±)-67a, 2-(3′,4′-Dimethoxyphenyl)-6-nitrochromane-(4→3″, 2→O-4″)-4″-hydroxy-6″-(4‴-methoxyphenyl)-5″,6″-dihydro-2H-pyran-2″-one] | – | – | – | – | 162 to 164 °C | 14.8 ± 0.6 µM | >20.3 | 14.8 ± 0.6 µM | > 300 µM | – | – | > 10
COc1ccc(C23CC(C4=C(CC(c5ccc(Cl)cc5)OC4=O)O2)c2cc(Cl)ccc2O3)cc1OC (racemic) [(±)-69a, 2-(3′,4′-Dimethoxyphenyl)-6-chlorochromane-(4→3″, 2→O-4″)-6″-(4‴-chlorophenyl)-4″-hydroxy-5″,6″-dihydro-2H-pyran-2″-one] | – | – | – | – | 172 to 175 °C | 20 ± 0.6 µM | 7.1 | 20 ± 0.6 µM | 141 ± 2.5 µM | – | – | –
COc1ccc(C2CC3=C(C(=O)O2)C2CC(c4ccc(OC)c(OC)c4)(O3)Oc3ccc(Cl)cc32)cc1 (racemic) [(±)-70a, 2-(3′.4′-Dimethoxyphenyl)-6-chlorochromane-(4→3″, 2→O-4″)-4″-hydroxy-6″-(4‴-methoxyphenyl)-5″,6″-dihydro-2H-pyran-2″-one] | – | – | – | – | 108 to 111 °C | 112 ± 3 µM | >2.7 | 112 ± 3 µM | > 300 µM | – | – | –
